What all share (test): NCI tumour cell line growth inhibition, 48 h
In assay [1] the test system is ACHN renal.
Assay [2] relates to CAKI-1 renal.
Assay [3] has as its system HCC-2998 colon.
For assay [4], the system named is IGROV1 ovarian.
Assay [5] relates to NCI-H226 lung.
Assay [6] relates to NCI-H522 lung.
Assay [7] concerns OVCAR-3 ovarian.
The subject of assay [8] is SF-539 CNS.
Assay [9] relates to T-47D breast.
Assay [10] relates to U251 CNS.

The values below come from PubChem BioAssay (NCI).

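Assay format: 96-well plates, 48-hour exposure. GI50 is the concentration that inhibits growth by half. At the TGI there is no net growth.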 Where a SMILES comes first, the peptide text is derived from it. Bridges are numbered along the chain shown (N, C = ends). [ ]: non-standard residue; d: D form. The star is where a group is joined. ξ: configuration not given here. ξDab(CH2SO3H) = NC(CCNCS(=O)(=O)O)C(=O)O; Heptanoyl(6-Me) = CC(C)CCCCC(=O)*; Dab = NCC[CH](N)C(=O)O

Take `C=C1C(=O)O[C@H]2C[C@@H]1CC/C(C)=C/CC/C(C)=C/CC[C@@]2(C)O`: the GI50 was 55.3 µM in assay [1]; 34.6 µM in assay [2]; 24.1 µM in assay [3]; 23.1 µM in assay [4]; 24.4 µM in [5]; 27.4 µM in assay [6]. Moreover, the GI50 in [7] was 51 µM; in assay [8], 24.9 µM; in assay [9] it was greater than 100 µM; in assay [10], 53 µM. The TGI in assay [1] was greater than 100 µM; in [2], greater than 100 µM; in assay [3], 74.9 µM; in assay [4], 74.2 µM; in [5] it was 58.1 µM; in [6], 79 µM. Besides, the TGI was greater than 100 µM in assay [7], 59.3 µM in [8], greater than 100 µM in assay [9] and greater than 100 µM in [10].

As for `Cc1nc(-c2nc(-c3ccc(OC(F)(F)F)cc3)no2)nn1Cc1cccc(N2CCC(S(C)(=O)=O)CC2)c1`, the GI50 was greater than 26.7 µM in assay [1]; 3.28 µM in assay [2]; greater than 40.6 µM in assay [3]; greater than 26.5 µM in assay [4]; 0.931 µM in assay [5]; greater than 100 µM in assay [6]. The GI50 in [7] was 11.6 µM; in [8], greater than 40.4 µM; in assay [9], 0.0134 µM; in assay [10], greater than 39.3 µM. In addition, the TGI in [1] is greater than 65 µM; in assay [2] it was 29.8 µM; in [3] it was greater than 100 µM; in assay [4], greater than 100 µM; in [5], 41.4 µM; in [6], greater than 100 µM. Also, the TGI in assay [7], in assay [8], in assay [9] and in assay [10] was greater than 100 µM each time.

With `CC[C@@H](C(=O)[C@H](C)[C@H](O)[C@@H](C)[C@H]1O[C@H]([C@@H](CC)C(=O)N(CC)CC)CC[C@H]1C)C1O[C@]2(C=C[C@@H](O)[C@]3(CC[C@@](C)([C@H]4CC[C@](O)(CC)[C@H](C)O4)O3)O2)[C@H](C)C[C@@H]1C` (stereo not given in full), the GI50 in [1] is 2.93 µM; in assay [2], 2.12 µM; in assay [3] it was 2.97 µM; in assay [4] it was 2.73 µM; in assay [5] it was 2.69 µM; in assay [6] it was 2.34 µM. The GI50 in [7] was 2.64 µM; in assay [8], 3.01 µM; in assay [9], 2.44 µM; in [10] it was 3.33 µM. Also, the TGI in assay [1] turned out to be 10 µM; in assay [2] it was 8.06 µM; in [3], 10.7 µM; in assay [4], 10.8 µM; in [5], 10.9 µM; in [6], 7.74 µM. Moreover, the TGI in [7] was 8.16 µM; in [8], 10.5 µM; in assay [9], 13.7 µM; in assay [10], 14 µM.

Take `CCC(C)C1NC(=O)C(CCNCS(=O)(=O)O)NC(=O)C(NC(=O)C(CCNCS(=O)(=O)O)NC(=O)C(NC(=O)C(CCNCS(=O)(=O)O)NC(=O)CCCCC(C)C)C(C)O)CCNC(=O)C(C(C)O)NC(=O)C(CCNCS(=O)(=O)O)NC(=O)C(CCNCS(=O)(=O)O)NC(=O)C(C(C)CC)NC1=O` (stereo not given) ({Heptanoyl(6-Me)}-[ξDab(CH2SO3H)]T[ξDab(CH2SO3H)][Dab][ξDab(CH2SO3H)]II[ξDab(CH2SO3H)][ξDab(CH2SO3H)]T; lactam 4-C; configuration not given here): the GI50 in assay [1] is greater than 25 µM; in [2], greater than 25 µM; in assay [3] it was 5.28 µM; in assay [4], 13.1 µM; in [5], 8.25 µM; in assay [6], 3.84 µM. Moreover, the GI50 was 2.88 µM in assay [7], 7.16 µM in assay [8], greater than 25 µM in assay [9] and 8.05 µM in [10]. In addition, the TGI in assay [1] is greater than 25 µM; in [2], greater than 25 µM; in assay [3] it was 14.2 µM; in [4], greater than 25 µM; in assay [5], greater than 25 µM; in assay [6] it was 14.1 µM. Also, the TGI in assay [7] is 8.06 µM; in [8], greater than 25 µM; in [9] it was greater than 25 µM; in assay [10], greater than 25 µM.

In the case of `COc1cc2ncnc(Nc3cccc(Cl)c3F)c2cc1OC(=O)N1CCN(C)C[C@H]1C`, the GI50 in assay [1] was 0.273 µM; in assay [2] it was 0.555 µM; in assay [3] it was greater than 45.4 µM; in [4], 0.888 µM; in assay [5], greater than 45.9 µM; in assay [6], 0.523 µM. The GI50 in assay [7] was greater than 33.6 µM; in assay [8] it was greater than 40.4 µM; in assay [9], 2.47 µM; in assay [10], greater than 44.2 µM. In addition, the TGI was greater than 46.3 µM in [1]; greater than 54.1 µM in assay [2]; greater than 70 µM in assay [3]; greater than 63.9 µM in assay [4]; greater than 75.6 µM in assay [5]; greater than 31.3 µM in assay [6]. For the same compound, the TGI in assay [7] is greater than 61.8 µM; in [8], greater than 58.9 µM; in assay [9], greater than 45.5 µM; in [10], greater than 64.5 µM.

Consider `N=N/C(=C\c1c(O)[nH]c2ccccc12)c1ccccc1`, for which the TGI is greater than 100 µM in assay [1]; greater than 100 µM in [2]; 63 µM in assay [3]; greater than 100 µM in [4]; 99.1 µM in [5]; 86.7 µM in assay [6]. The TGI in assay [7] was 44.2 µM; in assay [8] it was 37.9 µM; in assay [9], greater than 100 µM; in assay [10], greater than 83.9 µM.

For `C[C@@H](NC(=O)/C(C#N)=C/c1ccc([N+](=O)[O-])cc1)c1ccccc1`, the GI50 in assay [1] was 1.76 µM; in [2], 2.37 µM; in assay [3], 1.87 µM; in assay [4] it was 2.9 µM; in assay [5], 1.78 µM; in assay [6] it was 1.71 µM. The GI50 in [7] is 2.39 µM; in assay [8] it was 1.7 µM; in assay [9], 5.53 µM; in assay [10] it was 1.79 µM. Moreover, the TGI in assay [1] turned out to be 3.29 µM; in assay [2] it was 6.47 µM; in [3] it was 3.53 µM; in [4], 8.13 µM; in [5] it was 3.69 µM; in assay [6] it was 3.47 µM. Moreover, the TGI is 5.65 µM in assay [7], 3.37 µM in assay [8], 26.4 µM in [9] and 3.44 µM in assay [10].
